Data from patent US20110046225A1, “Pharmaceutical formulation containing palmitoyl ethanolamide and stearoyl ethanolamide” (VERMONT ITALIA SRL, priority 2008, published 2011).

Experiments:
RBL-2H3 cells = assay: inhibition of β-hexosaminidase release in IgE/DNP-stimulated RBL-2H3 mastocyte cells; type: cell-based; details: stimulated RBL-2H3 cells, culture medium; for INHIBITION OF β-HEXOSAMINIDASE RELEASE (% on test): 10 μM
Excerpt: More specifically, a RBL-2H3 mastocyte cell line was used to express high-affinity receptors for the IgE immunoglobulins. The interaction of the antigens with the IgE molecules present on the cell surface stimulates secretion by said cells of the pro-inflammatory contents of their intracytoplasmic granules, amongst which significant quantities of: histamine, leukotrienes, prostaglandins and TNF-alfa. The RBL-2H3 therefore represent an excellent cell module for the study of the mechanisms of exocytosis and release of the inflammatory mediators and of the relative modulation, as the case may be. In particular, measurement of the activity by the β-hexosaminidase enzyme was performed, the release of which correlates positively with the secretion of very strong pro-inflammatory mediators such as histamine and TNF-alfa. As already specified, a RBL-2H3 mastocyte cell line was used to express high-affinity receptors for the IgE immunoglobulins, whilst the assessment of cell vitality was recorded by way of the MTT method. The RBL-2H3 cell culture was started with a density amounting to 20,000 cells/well (96 wells) and incubated with IgE-anti-DNP. After about one hour, the antigen (DNP) was introduced into the culture, then after another 30 minutes the culture medium was harvested. Measurement of the activity by the β-hexosaminidase enzyme was performed on the harvested […], the release of which correlated positively with the secretion of very strong pro-inflammatory mediators such as histamine and TNF-alfa. A reduction of the enzymatic activities in the culture medium signifies minor cell degranulation and thus […]. The molecules according to the patent application herein were solubilised in DMSO and both added in variable concentrations to the cell cultures 1 hour prior to the introduction of the antigen.

receptor GPR55 = receptor GPR55 (Homo sapiens, UniProt Q9Y2T6); details: Ryberg et al. 2007; cited from earlier work
[1] = cited from earlier work
[2] = U.S. Pat. No. 5,990,170; 5,679,667; 5,506,224; cited from earlier work

Sequence of receptor GPR55 (Q9Y2T6 whole entry): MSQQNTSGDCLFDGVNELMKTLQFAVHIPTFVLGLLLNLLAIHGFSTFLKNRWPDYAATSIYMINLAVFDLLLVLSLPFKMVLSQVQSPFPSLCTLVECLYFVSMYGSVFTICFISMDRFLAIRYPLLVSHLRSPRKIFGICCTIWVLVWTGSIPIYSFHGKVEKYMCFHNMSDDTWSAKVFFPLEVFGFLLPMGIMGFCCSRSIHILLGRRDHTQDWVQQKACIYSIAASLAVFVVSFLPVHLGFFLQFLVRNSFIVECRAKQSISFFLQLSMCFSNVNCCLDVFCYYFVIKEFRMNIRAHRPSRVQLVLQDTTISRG

Row | Compound | INHIBITION OF β-HEXOSAMINIDASE RELEASE (% on test) (RBL-2H3 cells) | affinity for GPR55 (receptor GPR55) | inhibition at 10 µM (RBL-2H3 cells; Rattus norvegicus, read-out: INHIBITION OF β-HEXOSAMINIDASE RELEASE (% on test)) | solubility in aqueous environments [1] | anti-inflammatory activity relative to PEA [2]
1 | C[C@@H]1C[C@H]2[C@@H]3CCC4=CC(=O)C=C[C@]4(C)[C@@]3(F)[C@@H](O)C[C@]2(C)[C@@]1(O)C(=O)CO [Desametazone, reference compound] | 40.2% | – | – | – | –
2 | CCCCCCCCCCCCCCCC(=O)NCCO [Palmitoyl ethanolamide (PEA), palmitoyl ethanolamide] | – | nano-mole affinity array | 23.6% | – | –
3 | CCCCCCCCCCCCCCCCCC(=O)NCCO [Stearoyl ethanolamide (SEA), Stearoyl ethanolamide] | 25.3% | – | – | extremely scarce | much less active than the lower homologue PEA
4 | CCCCCc1cc(O)c2c(c1)OC(C)(C)[C@@H]1CCC(C)=C[C@@H]21 [THC, delta-9-tetrahydrocannabinol, reference compound] | – | nano-mole affinity array | – | – | –
